Assay results from ChEMBL document CHEMBL1132871, “Antimycobacterial activity of ionic fullerene derivatives” (Bioorg Med Chem Lett, 2000).
In brackets after ≈: the same amount, converted by molar mass.

Experiments:
[1] = Solubility in DMSO:water(9:1); format: physicochemical; settings: read-out: S
[2] = system: Mycobacterium tuberculosis; assay: The compound was tested for its ability to inhibit the growth of Mycobacterium tuberculosis strain H6/99; format: functional
Mycobacterium avium [3] = assay: The compound was tested for its ability to inhibit the growth of Mycobacterium avium.; format: functional
[4] = system: Mycobacterium tuberculosis; assay: The compound was tested for its ability to inhibit the growth of Mycobacterium tuberculosis strain H37Rv; format: functional
Mycobacterium avium [5] = assay: The compound was tested for its ability to inhibit the growth of Mycobacterium avium; Resistant; format: functional, organism-based
[6] = system: Mycobacterium tuberculosis; assay: The compound was tested for its ability to inhibit the growth of Mycobacterium tuberculosis strain H37Rv; Sensitive; format: functional, organism-based

SMILES | solubility [1] [µM] | MIC [2] [µg/mL] | MIC (Mycobacterium avium [3]) [µg/mL] | MIC [4] [µg/mL] | MIC (Mycobacterium avium [5]) | MIC [6]
COCCOCCOCC[N+]1(C)CC23C4=C5C6=C7c8c9c%10c%11c%12c%13c%14c(c2c2c%15c%16c%17c%18c%19c(c5c5c%20c%21c%22c%23c(c8C%22C65)c%10c5c%11c6c%13c8c(c%15%14)c%16c%10c%18c%11c(c%20%19)c%21c%13c%23c5c5c%13c%11c%10c8c65)C%17C42)C%12C9C73C1COCCOCCOC.[I-] (stereo not given) | 95 | 5 | 50 | 50 |  | 
COCCOCCOCCN1CC23C4=C5C6=C7c8c9c%10c%11c%12c%13c%14c(c2c2c%15c%16c%17c%18c%19c(c5c5c%20c%21c%22c%23c(c8C%22C65)c%10c5c%11c6c%13c8c(c%15%14)c%16c%10c%18c%11c(c%20%19)c%21c%13c%23c5c5c%13c%11c%10c8c65)C%17C42)C%12C9C73C1 (stereo not given) | 15 (≈ 13.7 µg/mL) |  |  |  |  | 
COCCOCCOCC1CCC[N+]1(C)C.[I-] (stereo not given) |  | > 500 | > 500 | > 500 |  | 
COCCOCCOCC[N+]1(C)CC23C4=C5C6=C7c8c9c%10c%11c%12c%13c%14c(c2c2c%15c%16c%17c%18c%19c(c5c5c%20c%21c%22c%23c(c8C%22C65)c%10c5c%11c6c%13c8c(c%15%14)c%16c%10c%18c%11c(c%20%19)c%21c%13c%23c5c5c%13c%11c%10c8c65)C%17C42)C%12C9C73C1.[I-] (stereo not given) | 43 | 500 | 500 | 50 |  | 
COCCOCCOCCN1CCCC1 |  | > 500 | > 500 | > 500 |  | 
CO[C@H]1/C=C/O[C@@]2(C)Oc3c(C)c(O)c4c(O)c(c(/C=N/N5CCN(C)CC5)c(O)c4c3C2=O)NC(=O)/C(C)=C\C=C\[C@H](C)[C@H](O)[C@@H](C)[C@@H](O)[C@@H](C)[C@H](OC(C)=O)[C@@H]1C |  |  |  |  | Resistant | Sensitive
COCCOCCOCC1C23C4=C5C6=C7C8c9c(c%10c%11c%12c%13c%14c%15c(c4c4c%16c%17c%18c%19c%20c(c6c6c%21c%22c(c%23c9c%11c9c%23c%11c%22c%22c(c%20%21)c%19c%19c%17c%17c(c%15%16)c%14c%14c%12c9c9c%11c%22c%19c%17c%149)C68)C5C4%18)C2C%10%13)C73C[N+]1(C)C.[I-] (stereo not given) | 15 | 5 | 500 | 50 |  | 
COCCOCCOCC[N+]1(C)CCCC1COCCOCCOC.[I-] (stereo not given) |  | > 500 | > 500 | > 500 |  | 
COCCOCCOCCN1CC23C4=C5C6=C7c8c9c%10c%11c%12c%13c%14c(c2c2c%15c%16c%17c%18c%19c(c5c5c%20c%21c%22c%23c(c8C%22C65)c%10c5c%11c6c%13c8c(c%15%14)c%16c%10c%18c%11c(c%20%19)c%21c%13c%23c5c5c%13c%11c%10c8c65)C%17C42)C%12C9C73C1COCCOCCOC (stereo not given) | 30 (≈ 31.4 µg/mL) | 500 (≈ 477 µM) | 50 (≈ 47.7 µM) | 500 (≈ 477 µM) |  | 
COCCOCCOCCN1CCCC1COCCOCCOC (stereo not given) |  | > 500 | > 500 | > 500 |  | 
NNC(=O)c1ccncc1 |  |  |  |  | Resistant | Sensitive
COCCOCCOCC1CCCN1C (stereo not given) |  | > 500 | > 500 | > 500 |  | 
COCCOCCOCC[N+]1(C)CCCC1.[I-] |  | > 500 | > 500 | > 500 |  | 
COCCOCCOCC1N(C)CC23C4=C5C6=C7c8c9c%10c%11c%12c%13c%14c(c2c2c%15c%16c%17c%18c%19c(c5c5c%20c%21c%22c%23c(c8C%22C65)c%10c5c%11c6c%13c8c(c%15%14)c%16c%10c%18c%11c(c%20%19)c%21c%13c%23c5c5c%13c%11c%10c8c65)C%17C42)C%12C9C713 (stereo not given) | 15 (≈ 13.7 µg/mL) |  |  |  |  | 
